Test results from ChEMBL document CHEMBL2057131, “Novel steroid inhibitors of glucose 6-phosphate dehydrogenase” (J Med Chem, 2012).
Values after ≈ are worked out from the molar mass of the structure shown.

Experiments:
[1] = target: T1, Glucose-6-phosphate 1-dehydrogenase (Homo sapiens, UniProt P11413); test: Inhibition of human recombinant N-terminal His tagged G6PD expressed in Escherichia coli JM109 (DE3) cells assessed as production of NADPH after 30 mins by Amplite fluorimetric assay
[2] = target: T1, Glucose-6-phosphate 1-dehydrogenase; test: Inhibition of G6PD in HEK293T cells assessed as accumulation of 6-phosphogluconate after 5 hrs by LC-MS/MS analysis using 6-aminonicotinamide; format: cell-based, HEK-293T
[3] = target: T1, Glucose-6-phosphate 1-dehydrogenase; test: Ratio of IC50 for G6PD in HEK293T cells to IC50 for human recombinant G6PD expressed in Escherichia coli JM109 (DE3) cells; conditions: HEK-293T
[4] = Aqueous solubility of the compound in phosphate buffer by turbidimetric method; format: physicochemical
[5] = Permeability of the compound from apical to basolateral side of human Caco2 cells; format: ADME, cell-based; conditions: Caco-2, read-out: permeability
[6] = Efflux ratio of permeability of the compound from basolateral to apical side over apical to basolateral side of human Caco2 cells; format: ADME, cell-based; conditions: Caco-2
[7] = Half life in human liver microsomes; format: ADME, Microsome
in vitro = conditions: human, liver microsomes
Cytochrome P450 1A = target: T2, Cytochrome P450 1A (Homo sapiens, UniProt P04798+P05177); test: Inhibition of CYP1A at > 25 uM; format: ADME
T2 sequence (P04798 whole entry): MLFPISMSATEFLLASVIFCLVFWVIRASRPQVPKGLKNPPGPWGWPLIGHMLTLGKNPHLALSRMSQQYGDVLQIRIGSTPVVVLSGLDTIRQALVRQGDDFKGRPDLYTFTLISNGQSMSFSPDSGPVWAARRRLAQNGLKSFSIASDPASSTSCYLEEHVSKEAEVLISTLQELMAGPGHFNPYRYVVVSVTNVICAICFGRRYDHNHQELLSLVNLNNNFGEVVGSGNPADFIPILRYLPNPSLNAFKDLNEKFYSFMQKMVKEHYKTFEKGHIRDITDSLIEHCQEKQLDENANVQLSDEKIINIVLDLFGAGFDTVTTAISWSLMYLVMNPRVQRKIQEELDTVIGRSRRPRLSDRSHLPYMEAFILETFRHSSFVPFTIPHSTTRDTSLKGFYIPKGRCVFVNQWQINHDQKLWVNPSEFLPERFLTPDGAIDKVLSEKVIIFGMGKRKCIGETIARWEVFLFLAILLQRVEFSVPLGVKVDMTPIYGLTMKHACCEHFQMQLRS
T2 sequence (P05177 whole entry): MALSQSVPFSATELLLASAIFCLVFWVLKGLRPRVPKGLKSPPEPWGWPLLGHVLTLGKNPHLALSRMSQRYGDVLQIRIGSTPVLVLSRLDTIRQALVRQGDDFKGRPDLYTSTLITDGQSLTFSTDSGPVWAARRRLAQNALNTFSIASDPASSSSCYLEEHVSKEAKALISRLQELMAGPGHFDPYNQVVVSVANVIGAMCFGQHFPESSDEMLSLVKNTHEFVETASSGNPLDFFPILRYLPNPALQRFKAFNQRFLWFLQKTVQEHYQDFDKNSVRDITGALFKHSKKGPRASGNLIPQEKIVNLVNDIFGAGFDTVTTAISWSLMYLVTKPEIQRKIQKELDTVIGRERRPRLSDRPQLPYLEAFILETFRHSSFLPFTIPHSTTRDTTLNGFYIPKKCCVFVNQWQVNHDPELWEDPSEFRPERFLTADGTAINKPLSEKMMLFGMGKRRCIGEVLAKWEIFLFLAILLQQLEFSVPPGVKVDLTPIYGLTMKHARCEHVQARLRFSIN

Cytochrome P450 2C19 = Cytochrome P450 2C19 (Homo sapiens, UniProt P33261); test: Inhibition of CYP2C19 at > 25 uM; format: ADME
Cytochrome P450 2C9 = Cytochrome P450 2C9 (Homo sapiens, UniProt P11712); test: Inhibition of CYP2C9 at > 25 uM; format: ADME
Cytochrome P450 2D6 = Cytochrome P450 2D6 (Homo sapiens, UniProt P10635); test: Inhibition of CYP2D6 at > 25 uM; format: ADME
Cytochrome P450 3A4 = Cytochrome P450 3A4 (Homo sapiens, UniProt P08684); test: Inhibition of CYP3A4 at > 25 uM; format: ADME
Chain of Cytochrome P450 3A4 (P08684 whole entry): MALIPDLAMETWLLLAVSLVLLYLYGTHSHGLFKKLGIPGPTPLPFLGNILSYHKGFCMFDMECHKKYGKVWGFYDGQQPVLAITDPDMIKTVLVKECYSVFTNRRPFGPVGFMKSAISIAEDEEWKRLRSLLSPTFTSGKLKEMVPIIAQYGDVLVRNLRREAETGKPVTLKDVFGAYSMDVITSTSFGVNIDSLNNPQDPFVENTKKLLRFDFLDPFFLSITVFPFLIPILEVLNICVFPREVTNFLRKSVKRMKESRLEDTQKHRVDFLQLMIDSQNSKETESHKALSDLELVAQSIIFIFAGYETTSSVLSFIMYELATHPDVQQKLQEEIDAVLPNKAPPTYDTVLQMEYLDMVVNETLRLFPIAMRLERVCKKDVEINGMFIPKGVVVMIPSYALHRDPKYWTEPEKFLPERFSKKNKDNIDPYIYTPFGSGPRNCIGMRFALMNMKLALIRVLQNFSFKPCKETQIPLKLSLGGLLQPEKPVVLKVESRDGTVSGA

T1 sequence (P11413 whole entry): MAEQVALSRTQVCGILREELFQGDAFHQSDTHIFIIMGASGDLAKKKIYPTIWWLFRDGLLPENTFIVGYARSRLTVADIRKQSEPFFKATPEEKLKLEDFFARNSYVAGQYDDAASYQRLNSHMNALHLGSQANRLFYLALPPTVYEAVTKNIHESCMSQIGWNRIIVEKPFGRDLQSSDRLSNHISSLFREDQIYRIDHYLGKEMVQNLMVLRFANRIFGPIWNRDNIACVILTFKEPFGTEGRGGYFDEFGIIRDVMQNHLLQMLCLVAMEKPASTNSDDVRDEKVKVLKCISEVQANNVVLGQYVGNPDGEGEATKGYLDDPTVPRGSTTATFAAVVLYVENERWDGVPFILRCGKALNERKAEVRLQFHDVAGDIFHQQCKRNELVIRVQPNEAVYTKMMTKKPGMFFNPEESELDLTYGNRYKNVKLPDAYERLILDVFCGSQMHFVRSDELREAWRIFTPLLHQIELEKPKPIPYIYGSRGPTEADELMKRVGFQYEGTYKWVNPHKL
Chain of Cytochrome P450 2C19 (P33261 whole entry): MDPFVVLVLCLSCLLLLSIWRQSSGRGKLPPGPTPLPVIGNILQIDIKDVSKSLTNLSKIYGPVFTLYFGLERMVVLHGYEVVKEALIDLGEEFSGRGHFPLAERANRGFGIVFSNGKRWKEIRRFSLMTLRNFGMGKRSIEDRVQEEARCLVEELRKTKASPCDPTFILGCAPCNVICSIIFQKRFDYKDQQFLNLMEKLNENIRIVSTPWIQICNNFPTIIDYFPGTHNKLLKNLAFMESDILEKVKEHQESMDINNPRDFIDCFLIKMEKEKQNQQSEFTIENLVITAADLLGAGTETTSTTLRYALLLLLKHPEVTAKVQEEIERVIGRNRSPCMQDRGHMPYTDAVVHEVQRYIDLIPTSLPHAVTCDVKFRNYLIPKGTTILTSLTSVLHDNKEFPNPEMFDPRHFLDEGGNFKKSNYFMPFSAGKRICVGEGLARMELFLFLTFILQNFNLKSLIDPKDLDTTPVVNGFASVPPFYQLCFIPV
Chain of Cytochrome P450 2C9 (P11712 whole entry): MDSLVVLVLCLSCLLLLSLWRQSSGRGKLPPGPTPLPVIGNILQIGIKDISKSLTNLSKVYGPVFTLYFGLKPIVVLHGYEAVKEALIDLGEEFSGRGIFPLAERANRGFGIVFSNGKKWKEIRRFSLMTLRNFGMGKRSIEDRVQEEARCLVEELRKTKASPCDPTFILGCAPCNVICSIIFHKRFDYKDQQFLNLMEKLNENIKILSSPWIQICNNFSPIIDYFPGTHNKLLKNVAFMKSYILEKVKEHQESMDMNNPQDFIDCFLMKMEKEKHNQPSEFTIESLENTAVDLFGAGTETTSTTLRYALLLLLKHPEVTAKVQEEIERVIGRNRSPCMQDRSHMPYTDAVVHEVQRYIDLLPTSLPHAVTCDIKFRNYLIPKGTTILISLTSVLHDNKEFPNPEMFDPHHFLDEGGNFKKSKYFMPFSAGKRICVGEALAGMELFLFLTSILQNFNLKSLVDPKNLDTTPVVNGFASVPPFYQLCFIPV
Chain of Cytochrome P450 2D6 (P10635 whole entry): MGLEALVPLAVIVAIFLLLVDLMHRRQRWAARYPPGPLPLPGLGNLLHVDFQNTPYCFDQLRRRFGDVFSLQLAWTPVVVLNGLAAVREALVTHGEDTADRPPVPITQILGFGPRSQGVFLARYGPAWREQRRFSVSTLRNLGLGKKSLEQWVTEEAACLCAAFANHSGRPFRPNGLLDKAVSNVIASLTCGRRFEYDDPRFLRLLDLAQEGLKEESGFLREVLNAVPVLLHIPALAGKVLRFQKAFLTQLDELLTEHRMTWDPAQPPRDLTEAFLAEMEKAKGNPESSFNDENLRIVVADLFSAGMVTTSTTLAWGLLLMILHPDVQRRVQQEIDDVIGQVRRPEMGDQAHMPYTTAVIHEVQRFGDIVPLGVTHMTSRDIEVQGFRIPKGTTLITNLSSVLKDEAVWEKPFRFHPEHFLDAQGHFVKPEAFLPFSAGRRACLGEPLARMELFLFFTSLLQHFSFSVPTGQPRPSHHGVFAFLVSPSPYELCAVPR

Structure (SMILES) | IC50 [1] | IC50 [2] | Ratio IC50 [3] | solubility kinetic [4] | Papp A→B [5] | efflux ratio [6] | half-life [7] | microsomal CLint (in vitro) | inhibition (INH) (Cytochrome P450 1A) | inhibition (INH) (Cytochrome P450 2C19) | inhibition (INH) (Cytochrome P450 2C9) | inhibition (INH) (Cytochrome P450 2D6) | inhibition (INH) (Cytochrome P450 3A4)
C[C@]12CC[C@H](NS(N)(=O)=O)C[C@@H]1CC[C@@H]1[C@@H]2CC[C@]2(C)C(=O)CC[C@@H]12 | 1.2 µM | 17.4 µM | 14.5 | 30 µM (≈ 11.1 µg/mL) | 31.8 ×10⁻⁶ cm/s | 0.66 | – | – | – | – | – | – | –
CC(=O)[C@H]1CC[C@H]2[C@@H]3CC[C@H]4C[C@@H](NS(C)(=O)=O)CC[C@]4(C)[C@H]3CC[C@]12C | 3.4 µM | 4.8 µM | 1.4 | 3 µM (≈ 1.19 µg/mL) | – | – | 135 min | 10.3 µL/min/mg | – | – | – | – | –
C[C@]12CC[C@H](O)C[C@@H]1CC[C@@H]1[C@@H]2CC[C@]2(C)[C@@H](C(=O)CO)CC[C@@H]12 | 0.9 µM | 12.3 µM | 13.7 | > 100 µM | – | – | – | – | Not Active | Not Active | Not Active | Not Active | Not Active
COC(=O)N[C@H]1CC[C@@]2(C)[C@@H](CC[C@@H]3[C@@H]2CC[C@]2(C)C(=O)CC[C@@H]32)C1 | 1.5 µM | 7.8 µM | 5.2 | > 100 µM | – | – | – | – | – | – | – | – | –
C[C@]12CC[C@H](O)CC1=CC[C@@H]1[C@@H]2CC[C@]2(C)C(=O)CC[C@@H]12 [PRASTERONE] | 11.3 µM | 24.9 µM | 2.2 | > 100 µM | – | – | – | – | – | – | – | – | –
CCNC(=O)N[C@H]1CC[C@@]2(C)[C@@H](CC[C@@H]3[C@@H]2CC[C@]2(C)C(=O)CC[C@@H]32)C1 | 1 µM | 9.5 µM | 9.5 | 30 µM (≈ 10.8 µg/mL) | 31.6 ×10⁻⁶ cm/s | 0.54 | 24.4 min | 56.8 µL/min/mg | – | – | – | – | –
C[C@]12CC[C@H](NS(N)(=O)=O)C[C@@H]1CC[C@@H]1[C@@H]2CC[C@]2(C)[C@@H](C(=O)CO)CC[C@@H]12 | 1.2 µM | 14.1 µM | 11.8 | > 100 µM | 13.1 ×10⁻⁶ cm/s | 0.49 | 48.9 min | 28.3 µL/min/mg | – | – | – | – | –
C[C@]12CC[C@H](NS(C)(=O)=O)C[C@@H]1CC[C@@H]1[C@@H]2CC[C@]2(C)[C@@H](C(=O)CO)CC[C@@H]12 | 3.8 µM | 35.2 µM | 9.2 | 10 µM (≈ 4.12 µg/mL) | 17.4 ×10⁻⁶ cm/s | 0.3 | – | – | – | – | – | – | –
CC(=O)[C@H]1CC[C@H]2[C@@H]3CC[C@H]4C[C@@H](NS(N)(=O)=O)CC[C@]4(C)[C@H]3CC[C@]12C | 2 µM | 9.2 µM | 4.6 | 10 µM (≈ 3.97 µg/mL) | 2.1 ×10⁻⁶ cm/s | 0.53 | – | – | – | – | – | – | –
